Laboratory results published in paper PMC11061149, “Protein mimetic 2D FAST rescues alpha synuclein aggregation mediated early and post disease Parkinson’s phenotypes” (Nature Communications, 2024).
Where “and” joins values, the source holds several entries; their conditions need not be identical. Equal values may be shown once.

Assays:
UA196 worms = test: Motility assay of UA196 worms; assay type: in vivo, C. elegans
Description: (§1) Briefly, all worm strains were bleached at the same time and the eggs were incubated on PLATE 1. On day two, the worms were divided into two batches. […] The liquid media for PLATE 4 A/B was prepared with 67.28% (v/v) of M9 buffer, 75 μM FUDR, 0.1% of 1 M magnesium sulfate (v/v), 0.1% of 1 M calcium chloride (v/v), 2.5% of 1 M potassium phosphate solution (pH 6, v/v), and 30% (v/v) of OP50 (0.5 OD600nm). […] To test the effect of each ligand on disease worm strains (NL5901 or UA196), there were four conditions were used in PLATE 4 A/B: […] The assay was started on day four using the WMicroTracker ARENA plate reader (Phylumtech, Santa Fe, Argentina) at 20 °C for 1 h per day over a 14-day period at intervals of 24 h. The WMicroTracker ARENA plate reader uses a large array of infrared light microbeams in each well of the plate to detect the interference caused by the movement of the worms. The output by the ARENA plate reader is an average of the overall movement of all worms present in each well, which is denoted as the motility of the worms in each well. […] After collecting the data each day, the PLATE 4 A/B was again placed on the shaker (100 rpm) at 20 °C in the incubator. The PLATE 4 A/B was on the on the shaker (100 rpm) at 20 °C in the incubator the whole duration of the experiment except only when the reading was collected on the WMicroTracker ARENA plate reader for 1 h.

NL5901 worms = test: Motility assay of NL5901 worms (WMicroTracker ARENA); assay type: in vivo, C. elegans; settings: for Motility of NL5901 worms + NS132: individual trials
Description: as §1

[1] = target: T1, αS fibers-catalyzed aggregation of αS (Homo sapiens, UniProt P37840); test: αS fibers-catalyzed aggregation of αS, ThT kinetic assay; assay type: biochemical
T1 construct: made in house; host or cells: E. coli BL21(DE3)

With `Cc1ccc(NC(=O)c2ccc(NC(=O)c3ccc([N+](=O)[O-])c(NCCc4c[nH]c5ccccc45)n3)c(NCC3CCCCC3)n2)c(OCC(=O)O)n1` [NS132] the “motility of UA196 worms, in words” value (UA196 worms; 50 µM ligand (day two and day four), during the aging process) was “noticeable rescue”, the “Motility (activity counts)” value (UA196 worms; UA196+NS132, Day 4, per trial) was 206 and 197 and 180 and 188 and the “Motility (activity counts)” value (UA196 worms; UA196+NS132, Day 5, per trial) was 205 and 178 and 179 and 183. For the same compound, the “Motility (activity counts)” value (UA196 worms; UA196+NS132, Day 6, per trial) was 161 and 191 and 157 and 201, the “Motility (activity counts)” value (UA196 worms; UA196+NS132, Day 7, per trial) was 139 and 152 and 174 and 165 and the “Motility (activity counts)” value (UA196 worms; UA196+NS132, Day 8, per trial) was 150 and 125 and 135 and 134. For the same compound, the “Motility (activity counts)” value (UA196 worms; UA196+NS132, Day 9, per trial) was 143 and 94 and 105 and 78, the “Motility (activity counts)” value (UA196 worms; UA196+NS132, Day 10, per trial) was 97 and 68 and 112 and the “Motility (activity counts)” value (UA196 worms; UA196+NS132, Day 13, per trial) was 24 and 17 and 22 and 19. The “Motility (activity counts)” value (UA196 worms; UA196+NS132, Day 14, per trial) was 19 and 14 and 23, the “motility of NL5901 worms, in words” value (NL5901 worms; 50 μM ligand on day two and day four) was “increase in the motility” and the “Motility of NL5901 worms + NS132” value (NL5901 worms; Day 4) was 255 and 287 and 207 and 297. For the same compound, the “Motility of NL5901 worms + NS132” value (NL5901 worms; Day 5) was 181 and 139 and 108 and 189, the “Motility of NL5901 worms + NS132” value (NL5901 worms; Day 6) was 201 and 130 and 176 and 121 and the “Motility of NL5901 worms + NS132” value (NL5901 worms; Day 7) was 101 and 172 and 160 and 83. The “Motility of NL5901 worms + NS132” value (NL5901 worms; Day 8) was 129 and 117 and 94 and 99, the “Motility of NL5901 worms + NS132” value (NL5901 worms; Day 9) was 107 and 89 and 145 and 65 and the “Motility of NL5901 worms + NS132” value (NL5901 worms; Day 10) was 127 and 107 and 105 and 52. For the same compound, the “Motility of NL5901 worms + NS132” value (NL5901 worms; Day 11) was 74 and 83 and 88 and 72, the “Motility of NL5901 worms + NS132” value (NL5901 worms; Day 12) was 57 and 70 and 69 and 56 and the “Motility of NL5901 worms + NS132” value (NL5901 worms; Day 13) was 38 and 34 and 42 and 33. The “Motility of NL5901 worms + NS132” value (NL5901 worms; Day 14) was 27 and 43 and 19 and 20, the “ThT fluorescence intensity, Average” value ([1]; 100 µM αS + αS fibers (20% monomer conc.) + equimolar ligand, time 0 hr) was 181.667 and the “effect on αS fibers-catalyzed aggregation of αS, in words” value ([1]; 100 μM αS, preformed αS fibers 20%, equimolar ligand) was “wholly suppressed”. The “ThT fluorescence intensity, Average” value ([1]; seeded, equimolar ligand, time 3 hr) was 168, the “ThT fluorescence intensity, Average” value ([1]; seeded, equimolar ligand, time 6 hr) was 160.333 and the “ThT fluorescence intensity, Average” value ([1]; seeded, equimolar ligand, time 9 hr) was 164. The “ThT fluorescence intensity, Average” value ([1]; seeded, equimolar ligand, time 12 hr) was 200.667, the “ThT fluorescence intensity, Average” value ([1]; seeded, equimolar ligand, time 24 hr) was 255 and the “ThT fluorescence intensity, Average” value ([1]; seeded, equimolar ligand, time 36 hr) was 243.333. For the same compound, the “ThT fluorescence intensity, Average” value ([1]; seeded, equimolar ligand, time 48 hr) was 299.333.
